System: Trypanosoma cruzi
Test: Antitrypanosomal activity against Trypanosoma cruzi Tulahuen 2 assessed as inhibition of epimastigotes growth after 5 days by MTT assay relative to control
Assay type: functional
Details: Tulahuen 2, 120 h, read-out: ID50 (the source's name)

**Q.** Which IC50 does the source give for `CCOc1no[n+]([O-])c1-c1ccccc1` here?
**A.** Its IC50 is 7.5 µM.

**Q.** Which IC50 does the source give for `O=S(=O)(c1ccccc1)c1nonc1S(=O)(=O)c1ccccc1` here?
**A.** The IC50 was 2 µM.

**Q.** With `CCOC(=O)COc1no[n+]([O-])c1S(=O)(=O)c1ccccc1` as the compound, how does the IC50 read?
**A.** The IC50 was 7.5 µM.

**Q.** How did the IC50 turn out when `O=S(=O)(CCO)c1no[n+]([O-])c1-c1ccccc1` was run?
**A.** Its IC50 is 25 µM.

**Q.** Which IC50 does the source give for `Cc1ncc([N+](=O)[O-])n1CCOc1no[n+]([O-])c1-c1ccccc1` here?
**A.** Its IC50 is 4 µM.

**Q.** Which IC50 does the source give for `Cc1ncc([N+](=O)[O-])n1CCOc1no[n+]([O-])c1S(=O)(=O)c1ccccc1` here?
**A.** The IC50 was 5 µM.

**Q.** Which IC50 does the source give for `CCOc1c(-c2ccccc2)no[n+]1[O-]` here?
**A.** Its IC50 is 18 µM.

**Q.** Which IC50 does the source give for `Cc1ncc([N+](=O)[O-])n1CCOc1nonc1S(=O)(=O)c1ccccc1` here?
**A.** The IC50 was 19 µM.

**Q.** With `O=S(=O)(c1ccccc1)c1no[n+]([O-])c1S(=O)(=O)c1ccccc1` as the compound, how does the IC50 read?
**A.** The IC50 was 3.5 µM.

**Q.** Which IC50 does the source give for `CCOc1no[n+]([O-])c1S(=O)(=O)c1ccccc1` here?
**A.** The IC50 was 7.5 µM.

**Q.** With `Nc1no[n+]([O-])c1-c1ccccc1` as the compound, how does the IC50 read?
**A.** The IC50 was 25 µM.

**Q.** Which IC50 does the source give for `[O-][n+]1onc(Br)c1-c1ccccc1` here?
**A.** Its IC50 is 13 µM.

**Q.** For `[O-][n+]1onc(-c2ccccc2)c1Br`, which IC50 is on record?
**A.** Its IC50 is 5 µM.

**Q.** Which IC50 does the source give for `O=S(=O)(CCO)c1c(-c2ccccc2)no[n+]1[O-]` here?
**A.** The IC50 was 7.5 µM.

**Q.** For `CN(C)CCCOc1no[n+]([O-])c1S(=O)(=O)c1ccccc1`, which IC50 is on record?
**A.** The IC50 was 3 µM.

**Q.** Which IC50 does the source give for `CCCCCCNC(=O)N/N=C/c1c(-c2ccccc2)no[n+]1[O-]` here?
**A.** Its IC50 is 25 µM.

**Q.** How did the IC50 turn out when `O=S(=O)(c1ccccc1)c1c(OCCCO)no[n+]1[O-]` was run?
**A.** The IC50 was 7.5 µM.

**Q.** Which IC50 does the source give for `CN(C)C(=O)CS(=O)(=O)c1c(-c2ccccc2)no[n+]1[O-]` here?
**A.** Its IC50 is 7.5 µM.

**Q.** `Cc1ncc([N+](=O)[O-])n1CCOc1nonc1-c1ccccc1` was tested. Which IC50 did it give?
**A.** The IC50 was 5 µM.

**Q.** With `CC1CS(=O)(=O)CCN1/N=C/c1ccc([N+](=O)[O-])o1` (stereo not drawn) [NIFURTIMOX] as the compound, how does the IC50 read?
**A.** Its IC50 is 7.7 µM.

System: Trypanosoma cruzi
Test: Antitrypanosomal activity against Trypanosoma cruzi Y assessed as parasite viability after 5 days by MTT assay
Assay type: functional
Details: 120 h, read-out: ID50 (the source's name)

**Q.** `CC1CS(=O)(=O)CCN1/N=C/c1ccc([N+](=O)[O-])o1` (stereo not drawn) [NIFURTIMOX] was tested. Which IC50 did it give?
**A.** The IC50 was 9.7 µM.

System: Trypanosoma cruzi
Test: Antitrypanosomal activity against Trypanosoma cruzi Tulahuen 2 assessed as inhibition of growth of epimastigotes at 25 uM after 5 days by MTT assay relative to control
Assay type: functional
Details: Tulahuen 2, 120 h, read-out: GI

**Q.** How did the inhibition of growth at 25 µM turn out when `Cc1c(/C=N/O)no[n+]1[O-]` was run?
**A.** The inhibition of growth at 25 µM was 32%.

**Q.** How did the inhibition of growth at 25 µM turn out when `Cc1ncc([N+](=O)[O-])n1CCNCc1nonc1C#N` was run?
**A.** Its inhibition of growth at 25 µM is 23%.

**Q.** `Cc1c(C(=O)NNC(N)=S)no[n+]1[O-]` was tested. Which inhibition of growth at 25 µM did it give?
**A.** Its inhibition of growth at 25 µM is 9%.

**Q.** `O=C(O)CSc1nonc1-c1ccccc1` was tested. Which inhibition of growth at 25 µM did it give?
**A.** The inhibition of growth at 25 µM was 31%.

**Q.** How did the inhibition of growth at 25 µM turn out when `Cc1nonc1CNC(c1c[nH]cn1)C1CCNCC1` (stereo not drawn) was run?
**A.** Its inhibition of growth at 25 µM is 2%.

**Q.** `O=C(O)CSc1no[n+]([O-])c1-c1ccccc1` was tested. Which inhibition of growth at 25 µM did it give?
**A.** Its inhibition of growth at 25 µM is 4%.

**Q.** With `CN(C)Cc1nonc1C#N` as the compound, how does the inhibition of growth at 25 µM read?
**A.** Its inhibition of growth at 25 µM is 13%.

**Q.** Which inhibition of growth at 25 µM does the source give for `NC(=O)c1c(CNC(c2c[nH]cn2)C2CCNCC2)no[n+]1[O-]` (stereo not drawn) here?
**A.** The inhibition of growth at 25 µM was 17%.

**Q.** Which inhibition of growth at 25 µM does the source give for `Cc1nonc1CN(C)C` here?
**A.** The inhibition of growth at 25 µM was 0%.

**Q.** How did the inhibition of growth at 25 µM turn out when `CN(C)CCCOc1nonc1-c1c[nH]cn1` was run?
**A.** Its inhibition of growth at 25 µM is 3%.

**Q.** For `Cc1ncc([N+](=O)[O-])n1CCOCC[N+](=O)[O-]`, which inhibition of growth at 25 µM is on record?
**A.** Its inhibition of growth at 25 µM is 13%.

**Q.** `NC(=O)c1c(CN2CCC(Cc3c[nH]cn3)CC2)no[n+]1[O-]` was tested. Which inhibition of growth at 25 µM did it give?
**A.** The inhibition of growth at 25 µM was 6%.

**Q.** With `Cc1ncc([N+](=O)[O-])n1CCNCc1no[n+]([O-])c1C` as the compound, how does the inhibition of growth at 25 µM read?
**A.** Its inhibition of growth at 25 µM is 17%.

**Q.** For `O=C(O)CSc1c(S(=O)(=O)c2ccccc2)no[n+]1[O-]`, which inhibition of growth at 25 µM is on record?
**A.** The inhibition of growth at 25 µM was 0%.

**Q.** With `CN(C)CCCOc1nonc1-c1ccccc1` as the compound, how does the inhibition of growth at 25 µM read?
**A.** Its inhibition of growth at 25 µM is 0%.

**Q.** Which inhibition of growth at 25 µM does the source give for `CS(=O)(=O)CCOc1no[n+]([O-])c1-c1ccccc1` here?
**A.** Its inhibition of growth at 25 µM is 11%.

**Q.** `Cc1no[n+]([O-])c1C(=O)NNC(N)=S` was tested. Which inhibition of growth at 25 µM did it give?
**A.** The inhibition of growth at 25 µM was 10%.

**Q.** How did the inhibition of growth at 25 µM turn out when `COc1cc(CN2CCN(c3ccc(CC(CO[N+](=O)[O-])O[N+](=O)[O-])cc3)CC2)cc(OC)c1OC` (stereo not drawn) was run?
**A.** Its inhibition of growth at 25 µM is 3%.

**Q.** For `Cc1c(CN2CCC(Cc3c[nH]cn3)CC2)no[n+]1[O-]`, which inhibition of growth at 25 µM is on record?
**A.** The inhibition of growth at 25 µM was 4%.

**Q.** For `CS(=O)(=O)CCOc1nonc1-c1ccccc1`, which inhibition of growth at 25 µM is on record?
**A.** The inhibition of growth at 25 µM was 4%.

**Q.** `Cc1no[n+]([O-])c1-c1ccc(C(=O)O)cc1` was tested. Which inhibition of growth at 25 µM did it give?
**A.** Its inhibition of growth at 25 µM is 38%.

**Q.** How did the inhibition of growth at 25 µM turn out when `[O-][n+]1onc(/C=N/O)c1CO` was run?
**A.** Its inhibition of growth at 25 µM is 3%.

**Q.** For `N#Cc1nonc1-c1ccccc1`, which inhibition of growth at 25 µM is on record?
**A.** The inhibition of growth at 25 µM was 2%.

**Q.** For `NC(=O)c1c(CN2CCCCC2)no[n+]1[O-]`, which inhibition of growth at 25 µM is on record?
**A.** Its inhibition of growth at 25 µM is 4%.

**Q.** How did the inhibition of growth at 25 µM turn out when `[O-][n+]1onc(-c2ccccc2)c1SC1CCNCC1` was run?
**A.** The inhibition of growth at 25 µM was 35%.

**Q.** With `Cc1nonc1-c1nc(S)n[nH]1` as the compound, how does the inhibition of growth at 25 µM read?
**A.** The inhibition of growth at 25 µM was 32%.

System: Trypanosoma cruzi
Test: Antitrypanosomal activity against Trypanosoma cruzi CL Brener assessed as parasite viability after 5 days by MTT assay
Assay type: functional
Details: 120 h, read-out: ID50 (the source's name)

**Q.** `CC1CS(=O)(=O)CCN1/N=C/c1ccc([N+](=O)[O-])o1` (stereo not drawn) [NIFURTIMOX] was tested. Which IC50 did it give?
**A.** The IC50 was 4.9 µM.
